The text below walks through data of PMC11614538, “The proline-rich antimicrobial peptide B7-005: low bacterial resistance, safe for human cells and effective in zebrafish embryo bacteraemia model” (Open Biology, 2024).

As usually defined, the pIC50 is −log10 of the IC50, conventionally taken in molar units.

pIC50: −log10 of the molar value. Residues, ends and D or L forms follow the SMILES beside them.

The conditions of data set [1]: ref [20]; cited from earlier work. From the text: The bioavailability in human serum of a peptide intended for clinical systemic use is a critical parameter for the success of peptide-based drugs. […] However, irreversible sequestration of the peptide by serum proteins at higher serum concentrations could also impair its antimicrobial activity. To check if the peptide maintained its availability under conditions closer to the clinical o ...

The subject of data set [2] is zebrafish embryos. The data set can be described thus: In vivo toxicity in zebrafish embryos. The conditions noted are these: for mortality of larvae: within 72 h, groups of 30, at least three independent experiments. Here is the method:
All experimental procedures were performed in compliance with relevant laws and institutional guidelines and were performed under the Italian Ministerial Approval (code 1FF80.N.A5X). Zebrafish eggs were placed in E3 Medium (5 mM NaCl, 0.17 mM KCl, 0.33 mM CaCl2, 0.33 mM MgSO4) and incubated at 28°C. Twenty-four hours post-fertilization (hpf), the eggs were manually dechorionated. Later, embryos were placed in E3 Medium supplemented with a final concentration of 0.2 mM phenylthiourea (PTU, Sigma-Aldrich Co.) to inhibit the production of melanin. Forty-eight hpf embryos were anaesthetized using tricaine at a final concentration of 0.02% (v/v) and placed on agarose plates, to remove the excess water and to facilitate injections. Each condition for toxicity evaluation and bacteraemia model was tested on groups of 30 embryos in at least three independent experiments. Only for biodistribution assay, groups of 10 embryos were used for two independent experiments. The injections of peptide or bacteria were performed in a volume of 4.6 nl delivered in the duct of Cuvier of embryos using capillary glass and a Nanoject II Auto-Nanoliter Injector (Drummond Scientific Co., Broomall, PA, USA) and a SteREO Microscope Discovery.V8 (Zeiss, Oberkochen, Germany, UE).
In vivo toxicity of B7-005 was evaluated by injecting 4.6 nl of sterile PBS containing increasing concentrations of the peptide (up to 64 mg kg^−1) in the duct of Cuvier of embryos. PBS only was injected in untreated control groups. The toxicity of the compound was assessed evaluating the mortality of larvae, kept in E3 medium at 28°C, within 72 h after injection.

The test system of data set [3] is MEC-1 cells. The data set can be described thus: Cell viability MTT, MEC-1. It counts as cell-based, human. The settings on record: MEC-1, 24 h, RPMI, n ≥ 9. Here is the method: Chronic lymphocytic leukaemia-derived MEC-1 cells were cultured in suspension using complete RPMI (EuroClone), supplemented with 100 U ml^−1 penicillin (Sigma), 100 μg ml^−1 streptomycin (Sigma), 2 mM L-glutamine and 10% (v/v) foetal bovine serum (FBS, EuroClone). A549 human lung carcinoma epithelial cells and immortalized human keratinocytes (HaCaT) were grown in adhesion in complete high glucose Dulbecco’s MEM (DMEM, EuroClone) supplemented with 100 U ml^−1 penicillin (Sigma), […] streptomycin (Sigma), 2 mM L-glutamine and 10% (v/v) of FBS. […] All cell lines were counted in a Bürker chamber and diluted to the desired working concentrations.
Cell viability was evaluated by tetrazolium salt (MTT, or MTS for HUVECs only) tests. […] The next day, absorbance was measured at 570 nm using a Nanoquant Infinite-M200Pro plate reader (Tecan, Switzerland).
HUVECs, 7500 cells per well, were seeded in HESFM with 10% FBS in a 96-well flat-bottomed microtitre plate (EuroClone SpA, Italy). […] The plate was then incubated for 2 h at 37°C in a humidified 5% CO2 atmosphere, and the absorbance was measured at 490 nm, using a spectrophotometer (PowerWaveX, Bio-Tek Instruments). The cytotoxicity was calculated by comparing the absorbance of peptide-treated samples with that of the untreated control and expressed in percentage of vitality. […]

With `CC[C@H](C)[C@H](NC(=O)[C@H](CCCNC(=N)N)NC(=O)[C@@H](N)Cc1c[nH]c2ccccc12)C(=O)N[C@@H](CCCNC(=N)N)C(=O)N[C@@H](CCCNC(=N)N)C(=O)N[C@@H](CCCNC(=N)N)C(=O)N[C@@H](Cc1c[nH]c2ccccc12)C(=O)N1CCC[C@H]1C(=O)N[C@@H](CCCNC(=N)N)C(=O)N[C@@H](CC(C)C)C(=O)N1CCC[C@H]1C(=O)N[C@@H](CCCNC(=N)N)C(=O)N1CCC[C@H]1C(=O)N[C@@H](CCCNC(=N)N)C(=O)N[C@@H](Cc1c[nH]c2ccccc12)C(=O)N[C@@H](CCCNC(=N)N)C(=O)O` [B7-005] (H-WRIRRRWPRLPRPRWR-OH), the “proteolytic degradation by serum proteases” value in data set [1] is on record as “excluded rapid proteolytic degradation”. The mortality of larvae in data set [2] (24 mg kg^−1, injected in duct of Cuvier, untreated control 10%) was at most 20%; in data set [2] (32 mg kg^−1, injected in duct of Cuvier), ~ 40%. In data set [2] (injected in duct of Cuvier, 72 h), the “lowest concentration significantly reducing viability of larvae” value turned out to be 32 mg/kg. For the same molecule, the highest tolerated amount in data set [2] (injected in duct of Cuvier, zebrafish embryos, 72 h) is 24 mg/kg. Further, the pIC50 in data set [3] is about 4.32.
